Test results published in PubChem BioAssay (NCI).
“And” between values parts separate entries of the source, which are not always exact repeats. Equal values may be shown once.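 Five compound concentrations were applied to cells in 96-well plates for 48 hours; endpoints were derived by simple linear interpolation of the resulting dose-response curve. The concentration for 50% growth inhibition is given as GI50. TGI is the concentration that stops growth completely.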

Experiments:
Experiment in all cases: DTP human tumour cell line panel, 48 h
KM12 colon = tested on: KM12 colon
HCC-2998 colon = tested on: HCC-2998 colon
OVCAR-5 ovarian = tested on: OVCAR-5 ovarian
UACC-257 melanoma = tested on: UACC-257 melanoma
IGROV1 ovarian = tested on: IGROV1 ovarian
SNB-75 CNS = tested on: SNB-75 CNS
OVCAR-4 ovarian = tested on: OVCAR-4 ovarian
HT29 colon = tested on: HT29 colon
HCT-116 colon = tested on: HCT-116 colon
786-0 renal = tested on: 786-0 renal

SMILES | GI50 (KM12 colon) | TGI (KM12 colon) | GI50 (HCC-2998 colon) | TGI (HCC-2998 colon) | GI50 (OVCAR-5 ovarian) | TGI (OVCAR-5 ovarian) | GI50 (UACC-257 melanoma) | TGI (UACC-257 melanoma) | GI50 (IGROV1 ovarian) | TGI (IGROV1 ovarian) | GI50 (SNB-75 CNS) | TGI (SNB-75 CNS) | GI50 (OVCAR-4 ovarian) | TGI (OVCAR-4 ovarian) | GI50 (HT29 colon) | TGI (HT29 colon) | GI50 (HCT-116 colon) | TGI (HCT-116 colon) | GI50 (786-0 renal) | TGI (786-0 renal)
CNC(=O)c1cc(Oc2ccc3nc(NC(=O)Nc4cc(C(F)(F)F)cc(C(F)(F)F)c4)sc3c2)ccn1 | 0.444 µM | 2 µM | 1.33 µM | 3.23 µM | 1.55 µM | 3.52 µM | 1.15 µM | 2.62 µM | 1.25 µM | 3.16 µM | 1 µM | 2.7 µM | 0.958 µM | 2.73 µM | 1.21 µM | 2.73 µM | 1.12 µM | 2.46 µM | 1.42 µM | 2.86 µM
COC(=O)Cc1nn2c(nc1=O)sc1ccc3ccccc3c12 | – | > 100 µM | – | > 100 µM | – | > 100 µM | – | > 100 µM | – | > 100 µM | – | 76.3 µM | – | > 100 µM | – | > 100 µM | – | > 100 µM | – | > 100 µM
CC(O)c1ccc(C(O)/C(=N\NC(=O)c2ccncc2)c2nc3ccc([N+](=O)[O-])cc3[nH]c2=O)cc1 (stereo not drawn) | – | > 100 µM | – | > 100 µM | – | > 100 µM | – | > 100 µM | – | > 100 µM | – | > 100 µM | – | > 100 µM | – | > 100 µM | – | > 100 µM | – | > 100 µM
COc1ccc2c(c1)C(=O)c1c-2c(OCCN2CCCCC2)nc2ccc(OC)cc12 | 0.585 µM | 2.1 µM | 1.23 µM | 9.24 µM | 3.74 µM | 19.7 µM | 2.07 µM | 6.9 µM | 0.708 µM | 6.58 µM | 1.27 µM | 11.2 µM | 1.36 µM | 10.7 µM | 0.435 µM | 2.7 µM | 0.393 µM | 1.64 µM | 1.04 µM | 2.59 µM
CC(C)=Cc1cc(C(=O)NCCNC(=O)c2cc(C=C(C)C)nc(NC#N)n2)nc(NC#N)n1 | – | > 100 µM | – | > 100 µM | – | > 100 µM | – | > 100 µM | – | > 100 µM | – | > 100 µM | – | > 100 µM | – | > 100 µM | – | > 100 µM | – | > 100 µM
Cc1cc(Cl)ccc1Nc1nc2c(s1)C(=O)c1ccccc1C2=O | – | 10.7 µM | – | 16.1 µM | – | 8.61 µM | – | 5.64 µM | – | 11.9 µM | – | 22 µM | – | 9.41 µM | – | 54.6 µM | – | 5.25 µM | – | 4.38 µM
COc1ccc(/C=C/C(=O)c2ccccc2)cc1OC | 6 µM | 10.2 µM and > 100 µM | 14.2 µM | 33.2 µM and 28.6 µM | 21.4 µM | 33.5 µM and 44.1 µM | – | 31.7 µM and 31.4 µM | 15.4 µM | 49.7 µM and 43.7 µM | 16.7 µM | 28.9 µM and 35.1 µM | – | 36.6 µM and 33.3 µM | 3.86 µM | 22.2 µM and 16.2 µM | 3.51 µM | 20.2 µM and 14.2 µM | 14.6 µM | 17.9 µM and 33.7 µM
C=C(C)[C@@H]1CC[C@]2(C(=O)N3CCN(C)CC3)CC[C@]3(C)[C@H](CC[C@@H]4[C@@]5(C)CC[C@H](O)C(C)(C)[C@@H]5CC[C@]43C)[C@@H]12 | 2.09 µM | 4.03 µM | 1.91 µM | 3.59 µM | 1.75 µM | 3.28 µM | 1.81 µM | 3.57 µM | 1.93 µM | 3.71 µM | 1.64 µM | 3.27 µM | 1.77 µM | 3.37 µM | 1.41 µM | 3.09 µM | 1.47 µM | 3.51 µM | 1.49 µM | 3.17 µM
COC(=O)[C@H](C)[C@@H]1CC[C@](C)(CCC2=C(C)CCCC2(C)C)OO1 | – | > 25 µM | – | > 25 µM | – | > 25 µM | – | > 25 µM | – | > 25 µM | – | > 25 µM | – | > 25 µM | – | > 25 µM | – | > 25 µM | – | > 25 µM
COc1ccc2c(c1)CC1N(C)CCC13CCCCC23 (stereo not drawn) | – | > 100 µM | – | > 100 µM | – | > 100 µM | – | > 100 µM | – | > 100 µM | – | > 100 µM | – | > 100 µM | – | > 100 µM | – | > 100 µM | – | > 100 µM
COC(=O)c1cc2c(nc1C)-c1ccccc1OS2(=O)=O | – | > 100 µM | – | > 100 µM | – | > 100 µM | – | > 100 µM | – | > 100 µM | – | 35.3 µM | – | > 100 µM | – | > 100 µM | – | > 100 µM | – | > 100 µM
Cc1cc(N(CCC#N)CCC#N)ccc1CC1N=C(c2ccccc2)OC1=O (stereo not drawn) | – | > 100 µM | – | > 100 µM | – | > 100 µM | – | > 100 µM | – | > 100 µM | – | > 100 µM | – | > 100 µM | – | > 100 µM | – | > 100 µM | – | > 100 µM
COc1ccc(NC(=O)C2=CC(=O)c3ccc(O)cc3C2=O)c(OC)c1 | – | > 100 µM | – | > 100 µM | – | > 100 µM | – | > 100 µM | – | > 100 µM | – | > 100 µM | – | > 100 µM | – | > 100 µM | – | > 100 µM | – | > 100 µM
